Data on 2 substances can be found in patent US6562355B1, “Comixture of dextran sulfate/escin for treating skin redness/edema and/or sensitive skin” (Societe L'Oreal S.A., priority 1999, dated 2003).

For series [1] the following is noted: cited from earlier work.
Series [2] deals with fragments of normal human skin kept alive (eyelid). The series is described as follows: Anti-edema and vasodilation-inhibitory effect in human skin kept alive after induction with substance P/TNFα/arachidonic acid (cocktail A); semi-quantitative histological scores. The class given is cell-based. The following applies: skin + cocktail A (5 μM substance P, arachidonic acid 40 mg/ml, TNFα 50 ng/ml) 2 hours, 37° C., topical, escin 0.075%, dextran sulfate 0.20%, 3 donors; for Vasodilation (histological score of dilation of the capillaries): score 0 (no dilation) to 4 (very large dilation), cocktail A alone 2.2, control skin 0.37; for Edema (histological score): score 0 (no edema) to 4 (very considerable edema), cocktail A alone 2.8, control skin 0.62. From the text: The goal of this study was to visualize the anti-edema effect and the vasodilation-inhibitory effect of intimate admixture of dextran sulfate and escin, in a model of skin kept alive (eyelid) after the induction of edema and vasodilation by a neuromediator (substance P)/α-type tumor necrosis factor (TNFα)/arachidonic acid combination.
Fragments of normal human skin from 3 different donors (plastic surgery), mechanically freed of the subcutaneous fat and the inner layer of the dermis, were each placed on a culture insert consisting of a porous membrane (pores 12 μm in diameter) (Costar), the dermal portion of the skin fragment being placed in contact with the porous membrane. The assembly thus prepared was positioned over the wells of a Costar brand 12-well culture plate and maintained for 24 hours at 37° C. in an incubator under a humidified atmosphere containing 5% CO2.
DMEM culture medium (Gibco-BRL) containing 100 U/ml of penicillin and 100 μg/ml of streptomycin, 200 μg/ml of L-glutamine and 0. 1% fetal calf serum (D.A.P., France), was added to the bottom of the wells such that the liquid reached the porous membrane without passing it. Thus mounted, the skin was in contact via its lower face surface through the porous membrane with the culture medium, transport taking place by slow diffusion between the two compartments.
The edema and the vasodilation were produced experimentally by placing on the surface of the skin a mixture in a culture medium consisting of 25 μl of a neuromediator (5 μM substance P), arachidonic acid (25 μl of a solution at a concentration of 40 mg/ml in glycerol) and TNFα (50 ng/ml), hereinafter referred to as “cocktail A”. These substances were maintained in contact with the skin for 2 hours.
The test products were applied topically onto the skin fragments during the induction of the edema and the vasodilation.
The escin, at a final concentration of 0.075%, was dissolved in water.
The dextran sulfate, at a final concentration of 0.20%, was dissolved in propylene glycol.
The temperature was maintained at 37° C. throughout the test period.
The histological analyses were carried out according to the conventional techniques known to this art, without modification of the protocols.
After treatment, the skin fragments were removed and fixed in Bouin liquid and included in paraffin for the histological analyses.
After staining with hemalun-eosin, the two (2) criteria, edema and dilation of the capillaries, were evaluated by means of semi-quantitative histological scores.
The histological evaluation was carried out in the superficial dermis and in the top part of the middle dermis on the same number of fields four (4) fields at 10× magnification). […]

For series [3] the following is noted: solutions of pH ranging from 4 to 10 at room temperature; cited from earlier work.

“And” between values parts separate entries of the source, which are not always exact repeats. Equal values may be shown once.

Take dextran sulfate: the “solubility in water and saline solutions” value in series [1] is “good”. Besides, in series [2], the “Vasodilation (histological score of dilation of the capillaries)” value was 1.8 and 1.8 ± 1.04; the “Edema (histological score)” value was 2.1 and 2.1 ± 1.04. Further, the stability in solutions entry in series [3] is recorded as “high”.

escin [reference compound]: in series [2], the “Vasodilation (histological score of dilation of the capillaries)” value was 1.5 and 1.5 ± 0.5; the “Edema (histological score)” value is 1.16 and 1.16 ± 0.77.
